Data from PubChem BioAssay AID248 (DTP/NCI, 2004).
Inconclusive results and toxic doses are left out.

System: L1210 leukemia ip in BDF1 mice, survival T/C
Test: NCI In Vivo Anticancer Drug Screen. Data for tumor model L1210 Leukemia (intraperitoneal) in B6D2F1 (BDF1) mice
Conditions: endpoint: mean survival time, higher = longer survival
How it was run: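 Tumor cells were implanted, animals were treated, and survival was followed. The result divides the treated measurement by the vehicle-control measurement.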

[1] = dose: 100.0 mg/kg/injection, schedule: Q01DX009 (ip), vehicle: Klucel (hydroxypropylcellulose) (HPC)
[2] = dose: 100.0 mg/kg/injection, schedule: Q04DX003 (ip), vehicle: Klucel (hydroxypropylcellulose) (HPC)
[3] = dose: 200.0 mg/kg/injection, schedule: Q04DX003 (ip), vehicle: Klucel (hydroxypropylcellulose) (HPC)
[4] = dose: 400.0 mg/kg/injection, schedule: Q04DX003 (ip), vehicle: Klucel (hydroxypropylcellulose) (HPC)
[5] = dose: 25.0 mg/kg/injection, schedule: Q04DX003 (ip), vehicle: saline
[6] = dose: 50.0 mg/kg/injection, schedule: Q04DX003 (ip), vehicle: saline
[7] = dose: 100.0 mg/kg/injection, schedule: Q01DX001 (ip), vehicle: saline
[8] = dose: 100.0 mg/kg/injection, schedule: Q04DX003 (ip), vehicle: saline
[9] = dose: 200.0 mg/kg/injection, schedule: Q01DX001 (ip), vehicle: saline
[10] = dose: 100.0 mg/kg/injection, schedule: Q04DX003 (ip), vehicle: saline with Tween-80
[11] = dose: 200.0 mg/kg/injection, schedule: Q04DX003 (ip), vehicle: saline with Tween-80
[12] = dose: 400.0 mg/kg/injection, schedule: Q04DX003 (ip), vehicle: saline with Tween-80
[13] = dose: 100.0 mg/kg/injection, schedule: Q01DX009 (ip), vehicle: saline

## COc1c(NC(=O)Nc2ccc(SC)cc2)cccc1[N+](=O)[O-]
[1]
  T/C: 89 % of control
dose: 200.0 mg/kg/injection, schedule: Q01DX009 (ip), vehicle: Klucel (hydroxypropylcellulose) (HPC)
  T/C: 98 % of control
dose: 400.0 mg/kg/injection, schedule: Q01DX009 (ip), vehicle: Klucel (hydroxypropylcellulose) (HPC)
  T/C: 93 % of control

## O=C(OC12CCCCC1CCCC2)c1ccc([N+](=O)[O-])cc1 (stereo not drawn)
[2]
  T/C: 96 % of control
dose: 200.0 mg/kg/injection, schedule: Q01DX009 (ip), vehicle: saline with Tween-80
  T/C: 90 % of control
[3]
  T/C: 101 % of control
[4]
  T/C: 96 % of control

## O=Nc1c(N=O)c(N=O)c(N=O)c(N=O)c1N=O
dose: 1.0 mg/kg/injection, schedule: Q01DX015 (ip), vehicle: carboxymethylcellulose (CMC)
  T/C: 101 % of control
dose: 2.0 mg/kg/injection, schedule: Q01DX015 (ip), vehicle: carboxymethylcellulose (CMC)
  T/C: 92 % of control
dose: 4.0 mg/kg/injection, schedule: Q01DX015 (ip), vehicle: carboxymethylcellulose (CMC)
  T/C: 102 % of control
dose: 8.0 mg/kg/injection, schedule: Q01DX015 (ip), vehicle: carboxymethylcellulose (CMC)
  T/C: 91 % of control
[5]
  T/C: 101 % of control
[6]
  T/C: 90 % of control
[7]
  T/C: 107 % of control
[8]
  T/C: 90 % of control
[9]
  T/C: 100 % of control
dose: 400.0 mg/kg/injection, schedule: Q01DX001 (ip), vehicle: saline
  T/C: 100 % of control

## COC(=O)N1C=CC2C=CC1C(C#N)(C#N)C2(C#N)C#N (stereo not drawn)
dose: 12.5 mg/kg/injection, schedule: Q04DX002 (ip), vehicle: Klucel (hydroxypropylcellulose) (HPC)
  T/C: 98 % of control
dose: 25.0 mg/kg/injection, schedule: Q04DX002 (ip), vehicle: Klucel (hydroxypropylcellulose) (HPC)
  T/C: 98 % of control
dose: 50.0 mg/kg/injection, schedule: Q04DX002 (ip), vehicle: Klucel (hydroxypropylcellulose) (HPC)
  T/C: 110 % of control

## C[Si](C)(C)c1cccc(-c2ccccc2)c1
dose: 25.6 mg/kg/injection, schedule: Q04DX002 (ip), vehicle: saline with Tween-80
  T/C: 93 % of control
dose: 64.0 mg/kg/injection, schedule: Q04DX002 (ip), vehicle: saline with Tween-80
  T/C: 104 % of control
[10]
  T/C: 101 % of control
dose: 160.0 mg/kg/injection, schedule: Q04DX002 (ip), vehicle: saline with Tween-80
  T/C: 97 % of control
[11]
  T/C: 92 % of control
dose: 400.0 mg/kg/injection, schedule: Q04DX002 (ip), vehicle: saline with Tween-80
  T/C: 97 % of control
[12]
  T/C: 101 % of control

## Nc1ccc2ccccc2c1S(=O)(=O)O
[10]
  T/C: 98 % of control
[11]
  T/C: 95 % of control
[12]
  T/C: 98 % of control

## CCC1(Sc2ncnc3nc[nH]c23)C(=O)NC(=O)NC1=O
dose: 6.25 mg/kg/injection, schedule: Q01DX015 (ip), vehicle: alkali diluted with saline
  T/C: 124 % of control
dose: 22.0 mg/kg/injection, schedule: Q01DX015 (ip), vehicle: saline
  T/C: 154 % of control
dose: 33.0 mg/kg/injection, schedule: Q01DX015 (ip), vehicle: saline
  T/C: 157 % of control
dose: 50.0 mg/kg/injection, schedule: Q01DX015 (ip), vehicle: saline
  T/C: 164 % of control
dose: 75.0 mg/kg/injection, schedule: Q01DX015 (ip), vehicle: saline
  T/C: 183 % of control
dose: 100.0 mg/kg/injection, schedule: Q01DX001 (ip), vehicle: alkali diluted with saline
  T/C: 103 % of control
dose: 200.0 mg/kg/injection, schedule: Q01DX001 (ip), vehicle: alkali diluted with saline
  T/C: 106 % of control
dose: 200.0 mg/kg/injection, schedule: Q01DX015 (ip), vehicle: alkali diluted with saline
  T/C: 166 % of control
dose: 400.0 mg/kg/injection, schedule: Q01DX001 (ip), vehicle: alkali diluted with saline
  T/C: 114 % of control
dose: 400.0 mg/kg/injection, schedule: Q01DX015 (ip), vehicle: alkali diluted with saline
  T/C: 109 % of control

## CC(=O)NCC[N+](C)(C)C
dose: 25.0 mg/kg/injection, schedule: Q01DX009 (ip), vehicle: saline
  T/C: 100 % of control
[5]
  T/C: 97 % of control
dose: 50.0 mg/kg/injection, schedule: Q01DX009 (ip), vehicle: saline
  T/C: 100 % of control
[6]
  T/C: 95 % of control
[13]
  T/C: 105 % of control
[8]
  T/C: 95 % of control

## CCCCN(C)/N=N/c1nc[nH]c1C(=O)NN
dose: 50.0 mg/kg/injection, schedule: Q01DX001 (ip), vehicle: carboxymethylcellulose (CMC)
  T/C: 104 % of control
dose: 100.0 mg/kg/injection, schedule: Q01DX001 (ip), vehicle: carboxymethylcellulose (CMC)
  T/C: 104 % of control
dose: 200.0 mg/kg/injection, schedule: Q01DX001 (ip), vehicle: carboxymethylcellulose (CMC)
  T/C: 101 % of control
dose: 400.0 mg/kg/injection, schedule: Q01DX001 (ip), vehicle: carboxymethylcellulose (CMC)
  T/C: 119 % of control

## C[CH2][Ge]([CH2]C)([CH2]C)[CH2]CO
dose: 5.0 mg/kg/injection, schedule: Q04DX002 (ip), vehicle: saline with Tween-80
  T/C: 103 % of control
dose: 10.0 mg/kg/injection, schedule: Q04DX002 (ip), vehicle: saline with Tween-80
  T/C: 106 % of control
dose: 20.0 mg/kg/injection, schedule: Q04DX002 (ip), vehicle: saline with Tween-80
  T/C: 103 % of control

## Cc1cc(N(CCOS(C)(=O)=O)CCOS(C)(=O)=O)ccc1C=Nc1ccc(-c2nc(Cc3ccccc3)sc2C)cc1
dose: 12.5 mg/kg/injection, schedule: Q01DX009 (ip), vehicle: Klucel (hydroxypropylcellulose) (HPC)
  T/C: 115 % of control
dose: 66.0 mg/kg/injection, schedule: Q04DX003 (ip), vehicle: Klucel (hydroxypropylcellulose) (HPC)
  T/C: 115 % of control

## COC(=O)C#CBr
dose: 3.13 mg/kg/injection, schedule: Q01DX009 (ip), vehicle: other
  T/C: 108 % of control
dose: 6.25 mg/kg/injection, schedule: Q01DX009 (ip), vehicle: other
  T/C: 97 % of control

## CC/C=C(\C)C1(CCC)C(=O)NC(=O)NC1=O
dose: 75.0 mg/kg/injection, schedule: Q01DX001 (ip), vehicle: saline
  T/C: 102 % of control
dose: 150.0 mg/kg/injection, schedule: Q01DX001 (ip), vehicle: saline
  T/C: 107 % of control

## CSc1ncnc2c1ncn2NC(=O)C1CCC(=O)N1 (stereo not drawn)
[13]
  T/C: 104 % of control
[2]
  T/C: 107 % of control
dose: 200.0 mg/kg/injection, schedule: Q01DX009 (ip), vehicle: saline
  T/C: 104 % of control
[3]
  T/C: 100 % of control
dose: 400.0 mg/kg/injection, schedule: Q01DX009 (ip), vehicle: saline
  T/C: 106 % of control
[4]
  T/C: 109 % of control

## O=C(COc1ccccc1)Nc1ccc([N+](=O)[O-])cc1O
[2]
  T/C: 97 % of control
[3]
  T/C: 100 % of control
[4]
  T/C: 103 % of control

## OCCNc1nc2ccc(Br)cc2c2ccccc12
[1]
  T/C: 87 % of control
[2]
  T/C: 93 % of control
[3]
  T/C: 93 % of control
[4]
  T/C: 106 % of control

## CC1CN(Cc2ccccc2)C(=O)N(c2ccccc2)C1=O (stereo not drawn)
dose: 100.0 mg/kg/injection, schedule: Q01DX Z (ip), vehicle: methylcellulose (MC)
  T/C: 92 % of control

## CCOC(=O)N1C(=O)NC(=O)C1c1ccc(Cl)cc1 (stereo not drawn)
dose: 50.0 mg/kg/injection, schedule: Q01DX001 (ip), vehicle: saline
  T/C: 96 % of control
[7]
  T/C: 112 % of control
[9]
  T/C: 100 % of control

## Nc1ccc(SS(N)(=O)=O)cc1
[7]
  T/C: 98 % of control
[9]
  T/C: 98 % of control

## CC(=[N-])CC(C)=O.CC(=[N-])CC(C)=O.[Cu+2]
dose: 6.25 mg/kg/injection, schedule: Q04DX003 (ip), vehicle: saline with Tween-80
  T/C: 88 % of control
dose: 12.5 mg/kg/injection, schedule: Q04DX003 (ip), vehicle: saline with Tween-80
  T/C: 89 % of control

## SC1CC[N-]CC1.SC1CC[N-]CC1.[Cl][Pt+2][Cl]
dose: 25.0 mg/kg/injection, schedule: Q01DX009 (ip), vehicle: water
  T/C: 96 % of control
dose: 50.0 mg/kg/injection, schedule: Q01DX009 (ip), vehicle: water
  T/C: 101 % of control
dose: 100.0 mg/kg/injection, schedule: Q01DX009 (ip), vehicle: water
  T/C: 96 % of control
dose: 100.0 mg/kg/injection, schedule: Q04DX003 (ip), vehicle: water
  T/C: 101 % of control
dose: 200.0 mg/kg/injection, schedule: Q01DX009 (ip), vehicle: water
  T/C: 98 % of control
dose: 200.0 mg/kg/injection, schedule: Q04DX003 (ip), vehicle: water
  T/C: 97 % of control

## Nc1nc(=O)n(C2OC(CO)C(O)C2O)c2nc(I)[nH]c12 (stereo not drawn)
dose: 50.0 mg/kg/injection, schedule: Q01DX005 (ip), vehicle: saline
  T/C: 100 % of control
dose: 100.0 mg/kg/injection, schedule: Q01DX005 (ip), vehicle: saline
  T/C: 107 % of control
